From ChEMBL document CHEMBL4732124 (Eur J Med Chem, 2021)

What was measured:
Hep 3B2 [1] = assay: Antiproliferative activity against human Hep3B cells assessed as cell viability at 10 uM after 48 hrs by MTT assay relative to control; format: functional; conditions: read-out: Activity
Huh-7 [2] = assay: Antiproliferative activity against human Huh-7 cells assessed as cell viability at 10 uM after 48 hrs by MTT assay relative to control; format: functional; conditions: read-out: Activity
HepG2 [3] = assay: Antiproliferative activity against human HepG2 cells assessed as cell viability at 10 uM after 48 hrs by MTT assay relative to control; format: functional; conditions: read-out: Activity
[4] = target: T1, Platelet-derived growth factor receptor alpha (Homo sapiens, UniProt P16234); assay: Inhibition of PDGFRalpha (unknown origin) in presence of [gamma33]-ATP at 10 uM by liquid scintillation counting analysis relative to control
T1 sequence (P16234 whole entry): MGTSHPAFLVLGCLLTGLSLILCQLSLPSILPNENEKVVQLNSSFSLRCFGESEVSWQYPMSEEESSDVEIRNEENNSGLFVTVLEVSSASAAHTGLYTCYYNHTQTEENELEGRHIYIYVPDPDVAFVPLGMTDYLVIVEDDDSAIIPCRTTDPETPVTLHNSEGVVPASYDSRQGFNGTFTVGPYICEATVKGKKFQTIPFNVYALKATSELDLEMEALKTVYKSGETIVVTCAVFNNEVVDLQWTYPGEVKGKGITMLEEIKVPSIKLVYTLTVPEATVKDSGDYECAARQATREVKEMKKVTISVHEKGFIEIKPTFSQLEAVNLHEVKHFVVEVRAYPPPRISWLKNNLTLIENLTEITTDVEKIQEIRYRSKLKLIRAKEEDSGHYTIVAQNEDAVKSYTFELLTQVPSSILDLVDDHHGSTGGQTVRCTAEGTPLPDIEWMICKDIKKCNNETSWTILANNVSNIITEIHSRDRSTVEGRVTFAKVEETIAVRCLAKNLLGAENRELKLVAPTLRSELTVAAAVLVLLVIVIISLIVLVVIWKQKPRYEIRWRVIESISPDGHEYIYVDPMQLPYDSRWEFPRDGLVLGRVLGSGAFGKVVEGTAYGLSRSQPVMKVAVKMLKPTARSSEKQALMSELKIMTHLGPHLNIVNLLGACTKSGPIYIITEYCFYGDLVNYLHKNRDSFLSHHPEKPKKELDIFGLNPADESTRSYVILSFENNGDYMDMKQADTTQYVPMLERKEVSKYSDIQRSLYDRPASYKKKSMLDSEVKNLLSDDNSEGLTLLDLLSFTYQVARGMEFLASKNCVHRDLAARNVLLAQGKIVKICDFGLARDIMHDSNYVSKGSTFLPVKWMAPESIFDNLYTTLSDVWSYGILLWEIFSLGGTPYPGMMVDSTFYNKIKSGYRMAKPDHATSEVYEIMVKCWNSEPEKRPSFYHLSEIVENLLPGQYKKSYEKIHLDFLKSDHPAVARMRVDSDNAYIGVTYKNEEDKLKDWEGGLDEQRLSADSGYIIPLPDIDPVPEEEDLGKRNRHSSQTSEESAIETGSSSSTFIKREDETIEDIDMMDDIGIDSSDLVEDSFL

HepG2 [5] = assay: Antiproliferative activity against human HepG2 cells assessed as reduction in cell viability after 48 hrs by MTT assay; format: functional, cell-based; conditions: HepG2, 48 h
Huh-7 [6] = assay: Antiproliferative activity against human Huh-7 cells assessed as reduction in cell viability after 48 hrs by MTT assay; format: functional, cell-based; conditions: Huh-7, 48 h
[7] = target: Platelet-derived growth factor receptor beta (Homo sapiens) (UniProt P09619); assay: Inhibition of PDGFRbeta (unknown origin) in presence of [gamma33]-ATP at 10 uM by liquid scintillation counting analysis relative to control
Chain of Platelet-derived growth factor receptor beta (Homo sapiens) (P09619 whole entry): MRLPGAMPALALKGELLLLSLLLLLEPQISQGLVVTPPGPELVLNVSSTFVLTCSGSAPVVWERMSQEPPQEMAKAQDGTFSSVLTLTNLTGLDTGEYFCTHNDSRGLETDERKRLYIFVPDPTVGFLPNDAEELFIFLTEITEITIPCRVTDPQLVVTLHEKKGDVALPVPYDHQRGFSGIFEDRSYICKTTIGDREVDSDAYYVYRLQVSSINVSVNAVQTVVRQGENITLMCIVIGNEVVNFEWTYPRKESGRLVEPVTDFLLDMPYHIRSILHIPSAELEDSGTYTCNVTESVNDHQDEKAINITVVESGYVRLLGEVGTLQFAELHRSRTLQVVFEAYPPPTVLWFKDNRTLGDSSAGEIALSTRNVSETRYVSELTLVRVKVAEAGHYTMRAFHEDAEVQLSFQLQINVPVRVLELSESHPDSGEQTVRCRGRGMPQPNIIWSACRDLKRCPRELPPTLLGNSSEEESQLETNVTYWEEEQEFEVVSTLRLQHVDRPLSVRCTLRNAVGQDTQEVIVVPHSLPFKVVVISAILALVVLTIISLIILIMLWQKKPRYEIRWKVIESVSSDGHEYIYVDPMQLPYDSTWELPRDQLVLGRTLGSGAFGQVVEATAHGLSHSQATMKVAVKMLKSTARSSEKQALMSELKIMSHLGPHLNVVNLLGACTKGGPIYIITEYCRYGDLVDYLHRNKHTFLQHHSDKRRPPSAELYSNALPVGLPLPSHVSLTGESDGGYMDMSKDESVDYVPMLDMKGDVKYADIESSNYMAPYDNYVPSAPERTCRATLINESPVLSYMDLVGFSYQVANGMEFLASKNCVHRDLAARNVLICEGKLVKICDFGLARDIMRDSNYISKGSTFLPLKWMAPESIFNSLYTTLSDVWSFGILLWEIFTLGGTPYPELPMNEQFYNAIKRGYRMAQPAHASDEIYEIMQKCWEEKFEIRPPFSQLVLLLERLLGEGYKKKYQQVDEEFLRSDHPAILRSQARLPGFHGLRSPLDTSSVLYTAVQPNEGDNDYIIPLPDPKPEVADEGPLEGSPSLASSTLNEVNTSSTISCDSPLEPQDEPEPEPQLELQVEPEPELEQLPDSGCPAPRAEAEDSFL

[8] = target: Dual specificity mitogen-activated protein kinase kinase 1 (Homo sapiens) (UniProt Q02750); assay: Inhibition of MEK-1 (unknown origin) in presence of [gamma33]-ATP at 10 uM by liquid scintillation counting analysis relative to control
Chain of Dual specificity mitogen-activated protein kinase kinase 1 (Homo sapiens) (Q02750 whole entry): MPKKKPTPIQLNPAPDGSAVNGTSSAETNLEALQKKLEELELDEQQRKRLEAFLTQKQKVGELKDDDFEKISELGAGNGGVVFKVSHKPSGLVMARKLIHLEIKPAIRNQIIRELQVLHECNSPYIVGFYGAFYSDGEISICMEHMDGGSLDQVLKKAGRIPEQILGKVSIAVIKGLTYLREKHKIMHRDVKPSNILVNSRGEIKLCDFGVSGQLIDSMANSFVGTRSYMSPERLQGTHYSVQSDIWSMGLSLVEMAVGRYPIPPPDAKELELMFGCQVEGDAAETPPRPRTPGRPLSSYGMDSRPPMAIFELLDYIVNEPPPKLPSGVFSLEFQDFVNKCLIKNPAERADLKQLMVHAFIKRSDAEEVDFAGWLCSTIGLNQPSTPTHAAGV

Hep 3B2 [9] = assay: Antiproliferative activity against human Hep3B cells assessed as reduction in cell viability after 48 hrs by MTT assay; format: functional, cell-based
[10] = target: T2, Serine/threonine-protein kinase A-Raf (Homo sapiens) (UniProt P10398); assay: Inhibition of A-Raf (unknown origin) in presence of [gamma33]-ATP at 10 uM by liquid scintillation counting analysis relative to control
T2 sequence (whole entry): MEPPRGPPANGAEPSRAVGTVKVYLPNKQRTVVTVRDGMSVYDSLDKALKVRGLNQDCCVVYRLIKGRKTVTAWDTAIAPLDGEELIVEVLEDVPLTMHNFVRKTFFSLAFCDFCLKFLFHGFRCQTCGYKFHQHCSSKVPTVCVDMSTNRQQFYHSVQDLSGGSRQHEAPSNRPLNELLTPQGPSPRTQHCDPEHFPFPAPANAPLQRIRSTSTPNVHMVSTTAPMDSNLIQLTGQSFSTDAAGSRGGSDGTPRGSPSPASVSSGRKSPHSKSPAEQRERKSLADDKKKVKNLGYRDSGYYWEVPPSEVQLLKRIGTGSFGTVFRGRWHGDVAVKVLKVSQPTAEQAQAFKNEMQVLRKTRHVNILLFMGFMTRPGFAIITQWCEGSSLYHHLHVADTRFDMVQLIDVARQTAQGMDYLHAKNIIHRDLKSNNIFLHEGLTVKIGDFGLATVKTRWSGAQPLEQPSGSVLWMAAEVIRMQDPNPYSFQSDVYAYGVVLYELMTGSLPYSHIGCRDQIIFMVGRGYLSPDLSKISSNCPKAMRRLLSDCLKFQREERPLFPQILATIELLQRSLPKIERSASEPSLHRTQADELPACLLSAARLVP

[11] = target: T3, Mast/stem cell growth factor receptor Kit (Homo sapiens, UniProt P10721); assay: Inhibition of CKIT (unknown origin) in presence of [gamma33]-ATP at 10 uM by liquid scintillation counting analysis relative to control
T3 sequence (P10721 whole entry): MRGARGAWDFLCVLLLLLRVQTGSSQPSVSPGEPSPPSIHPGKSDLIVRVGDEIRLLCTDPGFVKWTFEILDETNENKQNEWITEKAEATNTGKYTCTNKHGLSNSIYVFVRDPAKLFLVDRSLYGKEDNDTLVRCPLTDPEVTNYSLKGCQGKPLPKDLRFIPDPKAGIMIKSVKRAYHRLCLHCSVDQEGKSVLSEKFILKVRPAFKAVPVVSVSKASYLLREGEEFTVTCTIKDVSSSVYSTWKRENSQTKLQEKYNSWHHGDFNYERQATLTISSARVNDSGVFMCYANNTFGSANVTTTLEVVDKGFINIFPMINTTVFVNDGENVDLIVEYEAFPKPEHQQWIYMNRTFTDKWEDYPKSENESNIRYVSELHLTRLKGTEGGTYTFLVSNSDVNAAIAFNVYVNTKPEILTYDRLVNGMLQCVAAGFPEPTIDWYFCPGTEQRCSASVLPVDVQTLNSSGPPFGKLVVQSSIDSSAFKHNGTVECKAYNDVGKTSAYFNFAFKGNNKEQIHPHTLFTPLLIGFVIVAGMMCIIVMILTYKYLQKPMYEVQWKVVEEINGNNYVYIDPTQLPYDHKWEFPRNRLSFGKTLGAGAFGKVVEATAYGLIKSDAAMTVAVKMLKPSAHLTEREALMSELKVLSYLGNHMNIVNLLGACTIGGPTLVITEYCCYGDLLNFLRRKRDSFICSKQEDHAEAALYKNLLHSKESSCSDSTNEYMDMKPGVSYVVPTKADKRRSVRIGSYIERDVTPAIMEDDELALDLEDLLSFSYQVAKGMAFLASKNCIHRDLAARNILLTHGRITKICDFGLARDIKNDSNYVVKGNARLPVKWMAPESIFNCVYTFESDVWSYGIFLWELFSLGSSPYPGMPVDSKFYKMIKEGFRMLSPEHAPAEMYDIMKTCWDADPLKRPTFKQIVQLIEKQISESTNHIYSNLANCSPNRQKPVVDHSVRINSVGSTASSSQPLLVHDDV

WI-38 = assay: Cytotoxicity against human WI-38 cells assessed as cell viability after 48 hrs by MTT assay; format: cell-based; conditions: WI-38, 48 h
hERG (KCNH2) = hERG (KCNH2) (Homo sapiens, UniProt Q12809); assay: Potency index, ratio of E-4031 IC50 to compound IC50 for inhibition of human ERG; conditions: read-out: Ratio IC50
[12] = target: T4, Vascular endothelial growth factor receptor 3 (Homo sapiens, UniProt P35916); assay: Inhibition of Flt4 (unknown origin) in presence of [gamma33]-ATP by liquid scintillation counting analysis
T4 sequence (P35916 whole entry): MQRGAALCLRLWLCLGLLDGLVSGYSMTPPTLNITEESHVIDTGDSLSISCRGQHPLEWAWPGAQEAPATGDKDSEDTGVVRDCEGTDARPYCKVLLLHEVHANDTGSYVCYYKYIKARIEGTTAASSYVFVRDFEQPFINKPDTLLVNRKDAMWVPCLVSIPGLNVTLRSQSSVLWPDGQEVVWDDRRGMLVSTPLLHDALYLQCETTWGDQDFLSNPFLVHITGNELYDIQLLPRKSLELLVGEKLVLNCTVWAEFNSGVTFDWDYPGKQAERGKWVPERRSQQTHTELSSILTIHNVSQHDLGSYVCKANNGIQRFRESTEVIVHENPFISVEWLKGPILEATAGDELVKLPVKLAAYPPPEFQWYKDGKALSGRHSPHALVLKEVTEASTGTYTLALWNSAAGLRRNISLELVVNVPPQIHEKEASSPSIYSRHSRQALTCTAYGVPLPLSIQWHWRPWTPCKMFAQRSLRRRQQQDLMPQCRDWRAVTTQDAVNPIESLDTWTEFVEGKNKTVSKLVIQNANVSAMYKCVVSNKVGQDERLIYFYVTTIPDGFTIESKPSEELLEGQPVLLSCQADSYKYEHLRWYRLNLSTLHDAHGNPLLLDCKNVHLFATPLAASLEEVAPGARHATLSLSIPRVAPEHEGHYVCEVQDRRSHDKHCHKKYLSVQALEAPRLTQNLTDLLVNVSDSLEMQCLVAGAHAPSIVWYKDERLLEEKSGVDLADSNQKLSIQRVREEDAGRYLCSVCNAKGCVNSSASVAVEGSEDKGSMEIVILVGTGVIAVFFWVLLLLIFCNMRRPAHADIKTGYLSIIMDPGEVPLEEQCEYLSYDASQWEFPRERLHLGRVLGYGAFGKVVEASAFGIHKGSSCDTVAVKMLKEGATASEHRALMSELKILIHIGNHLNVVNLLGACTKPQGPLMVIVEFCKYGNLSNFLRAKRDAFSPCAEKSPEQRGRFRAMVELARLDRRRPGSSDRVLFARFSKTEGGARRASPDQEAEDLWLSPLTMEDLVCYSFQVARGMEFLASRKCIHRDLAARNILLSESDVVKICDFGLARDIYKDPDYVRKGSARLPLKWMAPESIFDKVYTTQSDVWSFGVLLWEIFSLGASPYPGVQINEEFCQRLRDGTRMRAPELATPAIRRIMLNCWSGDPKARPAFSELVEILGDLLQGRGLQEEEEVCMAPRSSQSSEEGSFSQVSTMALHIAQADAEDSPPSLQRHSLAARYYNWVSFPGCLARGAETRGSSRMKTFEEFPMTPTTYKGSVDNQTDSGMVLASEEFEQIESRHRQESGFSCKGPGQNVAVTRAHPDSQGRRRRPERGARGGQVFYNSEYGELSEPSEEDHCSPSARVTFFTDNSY

[13] = target: T5, Vascular endothelial growth factor receptor 2 (Homo sapiens, UniProt P35968); assay: Inhibition of KDR (unknown origin) in presence of [gamma33]-ATP by liquid scintillation counting analysis
[14] = target: T3, Mast/stem cell growth factor receptor Kit; assay: Inhibition of CKIT (unknown origin) in presence of [gamma33]-ATP by liquid scintillation counting analysis
[15] = target: T1, Platelet-derived growth factor receptor alpha; assay: Inhibition of PDGFRalpha (unknown origin) in presence of [gamma33]-ATP by liquid scintillation counting analysis
HepG2 [16] = assay: Induction of necrosis in human HepG2 cells assessed as increase in LDH release at 1.95 uM; format: functional
HepG2 [17] = assay: Induction of apoptosis in human HepG2 cells assessed as increase in caspase 3/7 activity at 1.95 uM; format: functional
[18] = target: T5, Vascular endothelial growth factor receptor 2; assay: Inhibition of VEGFR2 autophosphorylation in VEGF-stimulated human HepG2 cells after 2 hrs Western blot analysis; conditions: dose 1-3 µM
[19] = target: RAF proto-oncogene serine/threonine-protein kinase (Homo sapiens) (UniProt P04049); assay: Inhibition of C-Raf (unknown origin) in presence of [gamma33]-ATP at 10 uM by liquid scintillation counting analysis relative to control
[20] = target: T4, Vascular endothelial growth factor receptor 3; assay: Inhibition of Flt4 (unknown origin) in presence of [gamma33]-ATP at 10 uM by liquid scintillation counting analysis relative to control

Structure (SMILES)	viability at 10 µM (Hep 3B2 [1]) [%]	viability at 10 µM (Huh-7 [2]) [%]	viability at 10 µM (HepG2 [3]) [%]	IC50 (WI-38) [µM]	other results
CNC(=O)c1cc(-n2ccc3cc(NS(=O)(=O)c4cc(C(F)(F)F)cc(C(F)(F)F)c4)ccc32)ccn1	92	98	96		
CNC(=O)c1cc(Oc2ccc(NC(=O)Nc3ccc(Cl)c(C(F)(F)F)c3)cc2)ccn1 [SORAFENIB]	33	21	35	> 30	inhibition [4]: 99.4%; IC50 (HepG2 [5]): 7.22 µM; IC50 (Huh-7 [6]): 7.55 µM; inhibition [7]: 99.1%; inhibition [8]: 37.7%; IC50 (Hep 3B2 [9]): 8.62 µM; inhibition [10]: 99%; inhibition [11]: 65.8%
CNC(=O)c1cc(-n2ccc3cc(NC(=O)c4ccc(F)c(C(F)(F)F)c4)ccc32)ccn1	59	40	67		
CNC(=O)c1cc(-n2ccc3cc(NC(=O)c4ccccc4)ccc32)ccn1	29	105	99		
CNC(=O)c1cc(-n2ccc3cc(NC(=O)c4ccc(N5CCOCC5)c(C(F)(F)F)c4)ccc32)ccn1	53	46	72	8.48	IC50 (HepG2 [5]): 237 µM
CNC(=O)c1cc(-n2ccc3cc(NC(=S)Nc4cccc(C(F)(F)F)c4)ccc32)ccn1	99	109	81		
CNC(=O)c1cc(-n2ccc3cc(NC(=O)Nc4ccc(F)c(C(F)(F)F)c4)ccc32)ccn1	49	65	67		
CNC(=O)c1cc(-n2ccc3cc(NC(=O)Nc4ccccc4)ccc32)ccn1	66	74	82		
CNC(=O)c1cc(-n2ccc3cc(NS(=O)(=O)c4ccc(Cl)c(Cl)c4)ccc32)ccn1	92	94	97		
CNC(=O)c1cc(-n2ccc3cc(NS(=O)(=O)c4ccccc4)ccc32)ccn1	93	105	98		
CNC(=O)c1cc(-n2ccc3cc(NC(=O)c4cccc(C(F)(F)F)c4)ccc32)ccn1	72	77	34	6.5	IC50 (HepG2 [5]): 2.67 µM
CNC(=O)c1cc(-n2ccc3cc(NC(=O)Nc4ccc(Cl)c(Cl)c4)ccc32)ccn1	46	43	57	23.1	IC50 (Huh-7 [6]): 7.96 µM; IC50 (Hep 3B2 [9]): 7.94 µM
CNC(=O)c1cc(-n2ccc3cc(NC(=S)Nc4ccccc4)ccc32)ccn1	64	121	100		
CNC(=O)c1cc(-n2ccc3cc(NC(=O)Nc4ccc(N5CCN(C)CC5)c(C(F)(F)F)c4)ccc32)ccn1	92	20	27	> 30	selectivity ratio (hERG (KCNH2)): 3720; inhibition [4]: 71.5%; IC50 [12]: 0.0957 µM; IC50 [13]: 0.173 µM; IC50 [14]: 5 µM; IC50 [15]: > 5 µM; IC50 (HepG2 [5]): 1.95 µM; IC50 (Huh-7 [6]): 4.31 µM; Activity (HepG2 [16]): 21.5%; inhibition [7]: 47.5%; Activity (HepG2 [17]): 67.45%; inhibition [18]: Dose-dependent effect; inhibition [8]: 11.5%; IC50 (Hep 3B2 [9]): 8.01 µM; inhibition [19]: -0.5%; inhibition [10]: -4%; inhibition [11]: 70.5%; inhibition [20]: 93.5%
CNC(=O)c1cc(-n2ccc3cc(NS(=O)(=O)c4ccc(Cl)c(C(F)(F)F)c4)ccc32)ccn1	92	101	97		
CNC(=O)c1cc(-n2ccc3cc(NC(=O)c4ccc(Cl)c(Cl)c4)ccc32)ccn1	79	61	80		
CNC(=O)c1cc(-n2ccc3cc(NC(=S)Nc4ccc(Cl)c(Cl)c4)ccc32)ccn1	86	89	79		
CNC(=O)c1cc(-n2ccc3cc(NS(=O)(=O)c4cccc(C(F)(F)F)c4)ccc32)ccn1	84	94	88		
CNC(=O)c1cc(-n2ccc3cc(NC(=O)Nc4ccc(Cl)c(C(F)(F)F)c4)ccc32)ccn1	53	40	55	26.7	IC50 (Huh-7 [6]): 15.4 µM; IC50 (Hep 3B2 [9]): 12.3 µM
CNC(=O)c1cc(-n2ccc3cc(NC(=O)c4ccc(Cl)c(C(F)(F)F)c4)ccc32)ccn1	54	42	32		
CNC(=O)c1cc(-n2ccc3cc(NC(=O)Nc4ccc(N5CCOCC5)c(C(F)(F)F)c4)ccc32)ccn1	27	28	47	> 30	IC50 (HepG2 [5]): 9.35 µM; IC50 (Huh-7 [6]): 5.6 µM
CNC(=O)c1cc(-n2ccc3cc(NC(=O)Nc4cc(C(F)(F)F)cc(C(F)(F)F)c4)ccc32)ccn1	73	30	55	> 30	IC50 (Huh-7 [6]): 5.01 µM; IC50 (Hep 3B2 [9]): 29.8 µM
CNC(=O)c1cc(-n2ccc3cc(NC(=S)Nc4ccc(Cl)c(C(F)(F)F)c4)ccc32)ccn1	40	76	60	28.8	IC50 (Huh-7 [6]): 21.5 µM; IC50 (Hep 3B2 [9]): 13.9 µM
CNC(=O)c1cc(-n2ccc3cc(NC(=O)c4cc(C(F)(F)F)cc(C(F)(F)F)c4)ccc32)ccn1	111	77	90		
CNC(=O)c1cc(-n2ccc3cc(NC(=S)Nc4cc(C(F)(F)F)cc(C(F)(F)F)c4)ccc32)ccn1	55	40	53		
CNC(=O)c1cc(-n2ccc3cc(NC(=O)Nc4cccc(C(F)(F)F)c4)ccc32)ccn1	58	68	76		
